Key:
[1] = Selectivity index, ratio of HC50 for hemolytic activity in red blood cells (unknown origin) to MIC for antibacterial activity against penicillin-resistant Staphylococcus aureus ATCC43300; assay type: toxicity, cell-based, RBC; settings: read-out: Selectivity Index
Escherichia coli = test: Antibacterial activity against penicillin-susceptible Escherichia coli ATCC25922 by broth microdilution method; assay type: functional
Klebsiella pneumoniae = test: Antibacterial activity against Klebsiella pneumoniae ATCC10031 by broth microdilution assay; assay type: functional
Staphylococcus aureus [2] = test: Antibacterial activity against penicillin-resistant Staphylococcus aureus ATCC43300 by broth microdilution assay; assay type: functional
Staphylococcus aureus [3] = test: Antibacterial activity against penicillin-resistant Staphylococcus aureus ATCC31007 by broth microdilution assay; assay type: functional
[4] = test system: Staphylococcus epidermidis; test: Antibacterial activity against erythromycin-susceptible Staphylococcus epidermidis ATCC12228 by broth microdilution assay; assay type: functional
Bacillus subtilis = test: Antibacterial activity against penicillin-susceptible Bacillus subtilis ATCC9372 by broth microdilution assay; assay type: functional
Acinetobacter baumannii = test: Antibacterial activity against Acinetobacter baumannii ATCC19606 by broth microdilution assay; assay type: functional
Pseudomonas aeruginosa = test: Antibacterial activity against penicillin-susceptible Pseudomonas aeruginosa ATCC27853 by broth microdilution method; assay type: functional
Staphylococcus aureus [5] = test: Antibacterial activity against erythromycin susceptible Staphylococcus aureus ATCC25923 by broth microdilution assay; assay type: functional
Enterococcus faecalis = test: Antibacterial activity against vancomycin susceptible Enterococcus faecalis ATCC29212 by broth microdilution assay; assay type: functional
[6] = Hemolytic activity in red blood cells (unknown origin); assay type: toxicity, cell-based, Erythrocyte

SMILES	selectivity ratio [1]	MIC (Escherichia coli)	MIC (Klebsiella pneumoniae)	MIC (Staphylococcus aureus [2])	MIC (Staphylococcus aureus [3])	MIC [4]	MIC (Bacillus subtilis)	MIC (Acinetobacter baumannii)	MIC (Pseudomonas aeruginosa)	MIC (Staphylococcus aureus [5])	MIC (Enterococcus faecalis)	HC50 [6]
CCCCCCCCNC(=O)C[N+](C)(C)CCCOc1ccc(/C=C/C(=O)c2ccc(OCCC[N+](C)(C)CC(=O)NCCCCCCCC)cc2)cc1.[Br-].[Br-]	17.4	8 µg/mL	32 µg/mL	4 µg/mL	8 µg/mL	8 µg/mL	4 µg/mL	16 µg/mL	128 µg/mL	4 µg/mL	4 µg/mL	69.5 µg/mL
CCCCCCNC(=O)C[N+](C)(C)CCCOc1ccc(/C=C/C(=O)c2ccc(OCCC[N+](C)(C)CC(=O)NCCCCCC)cc2)cc1.[Br-].[Br-]	329	2 µg/mL	4 µg/mL	1 µg/mL	1 µg/mL	1 µg/mL	2 µg/mL	32 µg/mL	32 µg/mL	1 µg/mL	2 µg/mL	234 µg/mL
CCCCCCCCCCCC[N+](C)(C)CCCCCOc1ccc(C(=O)/C=C/c2ccccc2)cc1.[Br-]	20.9	> 128 µg/mL	> 128 µg/mL	8 µg/mL	16 µg/mL	8 µg/mL	8 µg/mL	128 µg/mL	> 128 µg/mL	8 µg/mL	16 µg/mL	167 µg/mL
CCCCCCCC[N+](C)(C)CCCCCOc1ccc(C(=O)/C=C/c2ccccc2)cc1.[Br-]	25.2	128 µg/mL	8 µg/mL	2 µg/mL	4 µg/mL	4 µg/mL	4 µg/mL	8 µg/mL	> 128 µg/mL	2 µg/mL	2 µg/mL	50.5 µg/mL
CCCCNC(=O)C[N+](C)(C)CCCOc1ccc(/C=C/C(=O)c2ccc(OCCC[N+](C)(C)CC(=O)NCCCC)cc2)cc1.[Br-].[Br-]	> 160	16 µg/mL	32 µg/mL	8 µg/mL	4 µg/mL	4 µg/mL	4 µg/mL	> 128 µg/mL	> 128 µg/mL	2 µg/mL	8 µg/mL	> 1280 µg/mL
CCCCCCCCCCCC[N+](C)(C)CCCOc1ccc(/C=C/C(=O)c2ccc(OCCC[N+](C)(C)CCCCCCCCCCCC)cc2)cc1.[Br-].[Br-]	< 0.2	> 128 µg/mL	> 128 µg/mL	> 128 µg/mL	16 µg/mL	64 µg/mL	> 128 µg/mL	> 128 µg/mL	> 128 µg/mL	16 µg/mL	> 128 µg/mL	21.2 µg/mL
CCCCCCCCCCCCCC[N+](C)(C)CCCOc1ccc(/C=C/C(=O)c2ccc(OCCC[N+](C)(C)CCCCCCCCCCCCCC)cc2)cc1.[Br-].[Br-]	0.2	> 128 µg/mL	128 µg/mL	128 µg/mL	64 µg/mL	> 128 µg/mL	> 128 µg/mL	128 µg/mL	> 128 µg/mL	64 µg/mL	> 128 µg/mL	28.4 µg/mL
CCCCCC[N+](C)(C)CCCCCCCOc1ccc(C(=O)/C=C/c2ccccc2)cc1.[Br-]	15.4	> 128 µg/mL	16 µg/mL	4 µg/mL	4 µg/mL	2 µg/mL	2 µg/mL	16 µg/mL	> 128 µg/mL	2 µg/mL	4 µg/mL	61.6 µg/mL
CCCCCCCCCCCC[N+](C)(C)CCCCCCCOc1ccc(C(=O)/C=C/c2ccccc2)cc1.[Br-]	3	> 128 µg/mL	> 128 µg/mL	16 µg/mL	64 µg/mL	16 µg/mL	16 µg/mL	> 128 µg/mL	> 128 µg/mL	16 µg/mL	32 µg/mL	47.4 µg/mL
CCCCCCCC[N+](C)(C)CCCOc1ccc(C(=O)/C=C/c2ccccc2)cc1.[Br-]	17.2	64 µg/mL	4 µg/mL	1 µg/mL	4 µg/mL	1 µg/mL	2 µg/mL	8 µg/mL	64 µg/mL	1 µg/mL	8 µg/mL	17.2 µg/mL
CCCC(=O)Nc1cc[n+](CCCOc2ccc(C(=O)/C=C/c3ccccc3)cc2)cc1.[Br-]	> 10	> 128 µg/mL	> 128 µg/mL	> 128 µg/mL	> 128 µg/mL	> 128 µg/mL	> 128 µg/mL	> 128 µg/mL	> 128 µg/mL	> 128 µg/mL	> 128 µg/mL	> 1280 µg/mL
CCCCCC[N+](C)(C)CCCOc1ccc(C(=O)/C=C/c2ccccc2)cc1.[Br-]	3.1	> 128 µg/mL	64 µg/mL	16 µg/mL	16 µg/mL	8 µg/mL	16 µg/mL	64 µg/mL	> 128 µg/mL	4 µg/mL	16 µg/mL	49.6 µg/mL
O=C(/C=C/c1ccccc1)c1ccc(OCCC[n+]2ccc(NC(=O)c3ccc4ccccc4c3)cc2)cc1.[Br-]	> 10	> 128 µg/mL	> 128 µg/mL	> 128 µg/mL	> 128 µg/mL	> 128 µg/mL	> 128 µg/mL	> 128 µg/mL	> 128 µg/mL	> 128 µg/mL	> 128 µg/mL	> 1280 µg/mL
CCCCCCCCCCCC[N+](C)(C)CCCOc1ccc(C(=O)/C=C/c2ccccc2)cc1.[Br-]	55.1	128 µg/mL	64 µg/mL	4 µg/mL	16 µg/mL	8 µg/mL	4 µg/mL	64 µg/mL	> 128 µg/mL	4 µg/mL	> 128 µg/mL	220 µg/mL
CCCCCCCC[N+](C)(C)CCCCCCCOc1ccc(C(=O)/C=C/c2ccccc2)cc1.[Br-]	52.6	128 µg/mL	8 µg/mL	2 µg/mL	4 µg/mL	2 µg/mL	2 µg/mL	32 µg/mL	> 128 µg/mL	2 µg/mL	4 µg/mL	105 µg/mL
CCCC[N+](C)(C)CCCOc1ccc(C(=O)/C=C/c2ccccc2)cc1.[Br-]	3	128 µg/mL	128 µg/mL	32 µg/mL	64 µg/mL	16 µg/mL	64 µg/mL	> 128 µg/mL	> 128 µg/mL	16 µg/mL	64 µg/mL	96.3 µg/mL
CCCCCCCCCC[N+](C)(C)CCCOc1ccc(C(=O)/C=C/c2ccccc2)cc1.[Br-]	189	> 128 µg/mL	128 µg/mL	4 µg/mL	4 µg/mL	16 µg/mL	8 µg/mL	> 128 µg/mL	> 128 µg/mL	8 µg/mL	64 µg/mL	756 µg/mL
CCCCCCCCCCCCNC(=O)C[N+](C)(C)CCCOc1ccc(/C=C/C(=O)c2ccc(OCCC[N+](C)(C)CC(=O)NCCCCCCCCCCCC)cc2)cc1.[Br-].[Br-]	< 5.5	> 128 µg/mL	> 128 µg/mL	> 128 µg/mL	> 128 µg/mL	> 128 µg/mL	128 µg/mL	> 128 µg/mL	> 128 µg/mL	> 128 µg/mL	> 128 µg/mL	703 µg/mL

Reference: ChEMBL document CHEMBL6092194, “Development of membrane-targeting chalcone derivatives as antibacterial agents against multidrug-resistant bacteria” (Eur J Med Chem, 2024)
